One assay has as its system TM2 envelope peptide. Briefly: Seroconversion ELISA after the virulence test, TM2 peptide. It is filed as in vivo, cats. Conditions: for Binding of the sera to TM2, 3 weeks after the virulence test / Binding of the sera to TM2, 4 weeks after the virulence test / Binding of the sera to TM2, 5 weeks after the virulence test: ELISA, seral dilution 1/25, individual cats; for response against the TM2 peptide: at 4 weeks after the test. Here is the method: (§1) The cats are subjected to a virulence test, one week after the final immunization, by means of an intraperitoneal inoculation of 10 CID50 of FIV Wo isolate, one CID50 corresponding to the dose capable of infecting 50% of the cats.
The production on of antibodies is evaluated before the test by means of an ELISA using an immobilized peptide (SU2, SU5, TM2 or TM3-19) and immunoprecipitation. After the test, the seroconversion is monitored by an ELISA using immobilized envelope peptides and a recombinant FTV capsid protein.
The ELISA with the immobilized envelope peptides corresponding to the immunogenic domains SU2 and TM2 and with the immobilized recombinant p25 protein (FIV capsid protein) is carried out as described in Avraméas A. et al. (Res. Virol., 1993, 144, 209-218).
Microplates (Immunolon II, Dynatech) are coated with 0.5 μg/well for the peptides and with 0.1 μg/well for the p25 protein.
The tests are carried out in duplicate and the results are expressed as average values.
After the test, the seroconversion against the envelope peptides and the p25 protein is evaluated at serum dilutions of 1/25 and 1/100, respectively.
The absorbance values (at 405 nm) are corrected by subtraction of the absorbance values obtained by binding with an immobilized control peptide.
The tests are normalized with reference to the binding of a mixture of serum from cats infected with FIV with a peptide representing the immunodominant domain of the FIV transmembrane glycoprotein (TM2) (Avraméas A. et al., Res. Virol., 1993, 144, 209-218).

In the next assay the test system is FIV Wo isolate. The assay can be described thus: Plasmatic viral load by competitive RT-PCR after the virulence test. The class given is in vivo, cats. Conditions: for course of the primary infection (viral RNA in plasma, viral dissemination): after test with 10 CID50 of Wo isolate, relative to control cats, FIG. 3. The procedure: Groups of four cats 4½ months old are immunized subcutaneously with 120 μg of FIV peptide (approximately 250 μg of peptide coupled to KLH (keyhole limpet haemocyanin)), emulsified in complete Freund's adjuvant.
Four repeat immunizations are administered subcutaneously in an incomplete Freund's adjuvant, generally at intervals of 2-3 weeks, although the interval between the last 2 […] was 7 weeks.
as §1
The plasma is filtered (0.45 μm) and the RNA not associated with cells is extracted directly from the filtered plasma using the Viral RNA kit (Qiagene) and eluted in 50 μl of water according to the manufacturer's instructions, and the RNA is then divided into aliquots and stored at −80° C.
A conserved region of the FIV gag gene is selected as a target sequence for the reverse transcription of the competitive RNA and the overlapping PCR amplification.
For the synthesis of the cDNA, 2.5 μl of viral RNA are mixed with 2.5 μl containing different numbers of copies of competitive RNA; typically, the various samples of competitive RNA are prepared using 5 semi-logarithmic dilutions, straddling the number of copies estimated in the biological sample.
The RNA is denatured at 65° C. for 5 minutes and immediately placed on ice. The reagents for the reverse transcription (15 μl) are added.
The final reaction mixtures contain 0.3 U/ml of random hexanucleotides (sequences of 6 randomly aligned nucleotides which make it possible theoretically to amplify any RNA fragment) (Pharmcia), 0.5 mM of dNTP, 10 mM of DTT, 1× of commercial buffer (Gibco BRL) and 100 U of Superscript II (Glbco BRL), in a volume of 20 μl.
The reactions are first carried out at 25° C. for 10 minutes to promote the hybridization of the primers, and then at 42° C. for 50 minutes. The reverse transcriptase is inactivated by incubation at 95° C. for 5 minutes.
The highly conserved sequences are selected as primers. The complementary DNA is amplified by overlapping PCR, using:
For the first amplification, the PCR reagents (80 μl) are added as a mixture with 20 μl of cDNA.
The DNA is denatured at 94° C. for 3 minutes, subjected to 28 cycles of amplification (94° C. 30 s/55° C. 30 s/72° C. 30 s) and to an elongation at 72° C. for 7 minutes.
For the overlapping amplification, 2 μl of the product of the first amplification is transferred into 98 μl of reaction mixture containing 200 μM of dNTP, 1.5 mM of MgCl2, 0.5 μM of each internal primer, 1× of commercial buffer (Gibco BRL) and 0.25 U of Taq polymerase (Gibco BRL).
The DNA is denatured at 94° C. for 3 minutes, subjected to 28 cycles of amplification (94° C. 30 s/52° C. 30 s/72° C. 30 s) and to an elongation at 72° C. for 7 minutes.
The amplification products (10 μl ) are subjected to electrophoresis on 2.75% agarose gel.
Digital images of the gels stained with ethidium bromide are obtained using the Appligene Imager and the densitometry analyses are carried out with the Image NIH software. The density of the competitive product is adjusted as a function of the difference between the length of the native sequence and that of the competitive sequence.
The logarithm of the ratio:density or competitive product/density of the native product, is plotted as a function of the logarithm of the number of copies of competitive RNA added to each reaction.
The best adjustment is determined by the least-squares method and the number of copies of native RNA corresponds to the intersection of the axis of the Xs (Piatak M. Jr. et al., Biotechniques, 1993, 14, 70-80).
The cumulative area under the curve (Dawson J., Drug Information J., 1994, 28, 723-732) is calculated from graphs illustrating the ratio: copies of viral RNA/ml of plasma/time, and compared with the Mann-Whitney test.

The test system of assay [1] is envelope glycoproteins of the Petaluma strain. The assay can be described thus: Immunoprecipitation of envelope glycoproteins by sera (metabolically labelled FL-4 cells). Conditions: lysates of chronically infected FL-4 cells; groups of four cats. The class given is in vivo, FIV. The text has this:
The sera collected on the day of the test (at a dilution of 1/40) are used to immunoprecipitate the envelope glycoproteins derived from the metabolically labelled FL-4 cells and feline mononuclear cells (PBM cells) infected with the FIV Wo strain, as described in G. Pancino et al. (Virology, 1995, 206, 796-806).
The recognition of the envelope glycoproteins is estimated by immunoprecipitation of the biosynthetically labelled envelope glycoprotein with sera collected on the day of the test, as summarized in Table I.

Values joined by “and” are separate entries in the source; they are usually repeats but may differ in a detail not shown here. Equal values may be shown once. “Also recorded” adds a separate entry of the source. Ends that are not written are not given here. Some results are limits rather than exact numbers.

For “KKGLQQLQEWEDWVGWIGN [TM3-19, 19-amino-acid fragment of the TM3 domain of the FIV Wo Env transmembrane glycoprotein (759-777)]”, in the assay with TM2 envelope peptide, the “Binding of the sera to TM2, 3 weeks after the virulence test” value was 0 optical density (3×) and 1.2 optical density; the “Binding of the sera to TM2, 4 weeks after the virulence test” value is 0.1 optical density and 2.4 optical density and 0 optical density and 0.5 optical density; the “Binding of the sera to TM2, 5 weeks after the virulence test” value is 1.9 optical density and 2.5 optical density and 0 optical density and 2.3 optical density; the “response against the TM2 peptide” value is given as “all but one (347) of the cats immunized with the TM3-19 peptide show a weak or undetectable response”. Besides, the “Plasmatic viraemia, RT-PCR” value with FIV Wo isolate (3 weeks after the test with 10 CID50 of FIV Wo, individual cats) was “undetectable (2×) and 1.19 × 10^7 copies of viral RNA/ml of plasma and 5.56 × 10^6 copies of viral RNA/ml of plasma”. In addition, the “course of the primary infection (viral RNA in plasma, viral dissemination)” value with FIV Wo isolate is recorded as “generally different from that observed with the control cats; also recorded: the infection in the other 3 cats of this group appears in a retarded manner; also recorded: significantly retards the viral dissemination”. The “reduction in the viral load relative to the control cats, Mann-Whitney test p” value in the assay on FIV Wo isolate (area under the cumulative curve at 3 weeks and 4 weeks after the test) is on record as 0.02. In addition, in the assay on FIV Wo isolate (cat 348), the “detection of plasmatic viraemia during the measurement period” value is “not possible to detect a plasmatic viraemia in one of the cats (348)”. The “number of copies of viral RNA observed in plasma (maximum)” value with FIV Wo isolate (primary infection, measurement period) was ≤ 3.1×10^6 copies/ml.

Take “SU2: peptide of the SU2 domain of the FIV surface envelope glycoprotein, SEQ ID NO: 2, used as immunogen (RAISSWKQRNRWEWRPD)”: the “cats whose sera immunoprecipitate the envelope glycoproteins of the Petaluma strain” value in assay [1] was 3 of the 4 cats (324, 325 and 327). In the assay on TM2 envelope peptide, the “Binding of the sera to TM2, 3 weeks after the virulence test” value is reported as 0 optical density; the “Binding of the sera to TM2, 4 weeks after the virulence test” value was 1.3 optical density and 2.2 optical density and 2.1 optical density and 1.4 optical density; the “Binding of the sera to TM2, 5 weeks after the virulence test” value is 2.1 optical density (2×) and 2.3 optical density and 2.5 optical density; the “response against the TM2 peptide” value is recorded as “developed a large response”. In addition, the “course of the primary infection (viral RNA in plasma, viral dissemination)” value with FIV Wo isolate is reported as “does not appear to modify the course of the primary infection; also recorded: do not modify the course of the infection”.

Source of the values: patent US6391304B1, “Peptides derived from the ENV gene of the feline immunodeficiency virus and their applications” (Centre National de la Recherche Scientifique, priority 1997, dated 2002).
